The compounds below were run on SK-BR-3 (assay: normalised response (% of control), CellTiter-Glo; higher = more viable cells (100 = DMSO, 0 = benzethonium chloride kill control)). Conditions: incubation time: 72 h.
Summary of the method: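 In 384-well plates holding compound at 5 concentrations in 10-fold steps over a 10,000-fold range specific to each compound, breast cancer cell lines were seeded as 20 µl suspension and incubated 72 h. CellTox Green fluorescence was measured at 485/520 nm, after which CellTiter-Glo luminescence was measured following 10 min at room temperature. Plate signals were normalised to 0.1 % DMSO (100) and a positive kill control (0), and each value is the normalised signal at a single concentration.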

| Compound | normalised response |
| --- | --- |
| CC[C@@H]1C(=O)OC[C@@H]1Cc1cncn1C [Pilocarpine] (4 nM) | 99.2% |
| CC(C)(C)c1cnc(CSc2cnc(NC(=O)C3CCNCC3)s2)o1 [SNS-032] (1 nM) | 90.8% |
| Cn1cnc2c(F)c(Nc3ccc(Br)cc3Cl)c(C(=O)NOCCO)cc21 [Selumetinib] (1 nM) | 96.5% |
| Nc1nc2[nH]cnc2c(=S)[nH]1 [Thioguanine] (1 nM) | 94.2% |

These compounds were tested on HCC1143 (assay: normalised viability (% of control), CellTiter-Blue; higher = more viable cells (100 = DMSO, 0 = benzethonium chloride kill control)). Conditions: incubation time: 72 h.
Description: (§1)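 DSRT, CellTiter-Blue viability, 72 h incubation. Signal is normalised to DMSO and benzethonium chloride controls. Value is the normalised response at dose 1.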

| Compound | normalised viability |
| --- | --- |
| O=NN(CCCl)C(=O)NCCCl [Carmustine] (1 nM) | 90.5% |
| CC1=C2C[C@H]3[C@@H](CC=C4C[C@@H](O)CC[C@@]43C)[C@@H]2CC[C@]12O[C@@H]1C[C@H](C)CN[C@H]1[C@H]2C [Cyclopamine] (1 nM) | 97.4% |
| CC1(C)CNc2cc(NC(=O)c3cccnc3NCc3ccncc3)ccc21 [Motesanib] (1 nM) | 86.3% |
| CC[C@@H]1C(=O)OC[C@@H]1Cc1cncn1C [Pilocarpine] (4 nM) | 97.6% |
| CC(C)(C)c1cnc(CSc2cnc(NC(=O)C3CCNCC3)s2)o1 [SNS-032] (1 nM) | 85.9% |
| Cn1cnc2c(F)c(Nc3ccc(Br)cc3Cl)c(C(=O)NOCCO)cc21 [Selumetinib] (1 nM) | 90.6% |
| Nc1nc2[nH]cnc2c(=S)[nH]1 [Thioguanine] (1 nM) | 95.3% |

These compounds were tested on MDA-MB-468 in the same assay as above. Conditions: incubation time: 72 h.
Description: as §1

| Compound | normalised viability |
| --- | --- |
| O=NN(CCCl)C(=O)NCCCl [Carmustine] (1 nM) | 106% |
| CC1=C2C[C@H]3[C@@H](CC=C4C[C@@H](O)CC[C@@]43C)[C@@H]2CC[C@]12O[C@@H]1C[C@H](C)CN[C@H]1[C@H]2C [Cyclopamine] (1 nM) | 103% |
| CC1(C)CNc2cc(NC(=O)c3cccnc3NCc3ccncc3)ccc21 [Motesanib] (1 nM) | 87.1% |
| CC[C@@H]1C(=O)OC[C@@H]1Cc1cncn1C [Pilocarpine] (4 nM) | 104% |
| CC(C)(C)c1cnc(CSc2cnc(NC(=O)C3CCNCC3)s2)o1 [SNS-032] (1 nM) | 104% |
| Cn1cnc2c(F)c(Nc3ccc(Br)cc3Cl)c(C(=O)NOCCO)cc21 [Selumetinib] (1 nM) | 101% |
| Nc1nc2[nH]cnc2c(=S)[nH]1 [Thioguanine] (1 nM) | 104% |

Each compound was assayed on HCC1599 in the same assay as above. Conditions: incubation time: 72 h.
Description: as §1

| Compound | normalised viability |
| --- | --- |
| O=NN(CCCl)C(=O)NCCCl [Carmustine] (1 nM) | 97% |
| CC1=C2C[C@H]3[C@@H](CC=C4C[C@@H](O)CC[C@@]43C)[C@@H]2CC[C@]12O[C@@H]1C[C@H](C)CN[C@H]1[C@H]2C [Cyclopamine] (1 nM) | 96.5% |
| CC1(C)CNc2cc(NC(=O)c3cccnc3NCc3ccncc3)ccc21 [Motesanib] (1 nM) | 84.8% |
| CC[C@@H]1C(=O)OC[C@@H]1Cc1cncn1C [Pilocarpine] (4 nM) | 85.4% |
| CC(C)(C)c1cnc(CSc2cnc(NC(=O)C3CCNCC3)s2)o1 [SNS-032] (1 nM) | 101% |
| Cn1cnc2c(F)c(Nc3ccc(Br)cc3Cl)c(C(=O)NOCCO)cc21 [Selumetinib] (1 nM) | 98.5% |
| Nc1nc2[nH]cnc2c(=S)[nH]1 [Thioguanine] (1 nM) | 110% |

These compounds were tested on MDA-MB-436 in the same assay as above. Conditions: incubation time: 72 h.
Description: as §1

| Compound | normalised viability |
| --- | --- |
| O=NN(CCCl)C(=O)NCCCl [Carmustine] (1 nM) | 75.7% |
| CC1=C2C[C@H]3[C@@H](CC=C4C[C@@H](O)CC[C@@]43C)[C@@H]2CC[C@]12O[C@@H]1C[C@H](C)CN[C@H]1[C@H]2C [Cyclopamine] (1 nM) | 126% |
| CC1(C)CNc2cc(NC(=O)c3cccnc3NCc3ccncc3)ccc21 [Motesanib] (1 nM) | 71.3% |
| CC[C@@H]1C(=O)OC[C@@H]1Cc1cncn1C [Pilocarpine] (4 nM) | 113% |
| CC(C)(C)c1cnc(CSc2cnc(NC(=O)C3CCNCC3)s2)o1 [SNS-032] (1 nM) | 113% |
| Cn1cnc2c(F)c(Nc3ccc(Br)cc3Cl)c(C(=O)NOCCO)cc21 [Selumetinib] (1 nM) | 97.6% |
| Nc1nc2[nH]cnc2c(=S)[nH]1 [Thioguanine] (1 nM) | 101% |

Each compound was assayed on BT-549 in the same assay as above. Conditions: incubation time: 72 h.
Description: as §1

| Compound | normalised viability |
| --- | --- |
| O=NN(CCCl)C(=O)NCCCl [Carmustine] (1 nM) | 103% |
| CC1=C2C[C@H]3[C@@H](CC=C4C[C@@H](O)CC[C@@]43C)[C@@H]2CC[C@]12O[C@@H]1C[C@H](C)CN[C@H]1[C@H]2C [Cyclopamine] (1 nM) | 111% |
| CC1(C)CNc2cc(NC(=O)c3cccnc3NCc3ccncc3)ccc21 [Motesanib] (1 nM) | 103% |
| CC[C@@H]1C(=O)OC[C@@H]1Cc1cncn1C [Pilocarpine] (4 nM) | 103% |
| CC(C)(C)c1cnc(CSc2cnc(NC(=O)C3CCNCC3)s2)o1 [SNS-032] (1 nM) | 113% |
| Cn1cnc2c(F)c(Nc3ccc(Br)cc3Cl)c(C(=O)NOCCO)cc21 [Selumetinib] (1 nM) | 102% |
| Nc1nc2[nH]cnc2c(=S)[nH]1 [Thioguanine] (1 nM) | 98.8% |

These compounds were tested on HDQ-P1 in the same assay as above. Conditions: incubation time: 72 h.
Description: as §1

| Compound | normalised viability |
| --- | --- |
| O=NN(CCCl)C(=O)NCCCl [Carmustine] (1 nM) | 111% |
| CC1=C2C[C@H]3[C@@H](CC=C4C[C@@H](O)CC[C@@]43C)[C@@H]2CC[C@]12O[C@@H]1C[C@H](C)CN[C@H]1[C@H]2C [Cyclopamine] (1 nM) | 135% |
| CC1(C)CNc2cc(NC(=O)c3cccnc3NCc3ccncc3)ccc21 [Motesanib] (1 nM) | 84.2% |
| CC[C@@H]1C(=O)OC[C@@H]1Cc1cncn1C [Pilocarpine] (4 nM) | 133% |
| CC(C)(C)c1cnc(CSc2cnc(NC(=O)C3CCNCC3)s2)o1 [SNS-032] (1 nM) | 102% |
| Cn1cnc2c(F)c(Nc3ccc(Br)cc3Cl)c(C(=O)NOCCO)cc21 [Selumetinib] (1 nM) | 107% |
| Nc1nc2[nH]cnc2c(=S)[nH]1 [Thioguanine] (1 nM) | 111% |

Each compound was assayed on MDA-MB-453 in the same assay as above. Conditions: incubation time: 72 h.
Description: as §1

| Compound | normalised viability |
| --- | --- |
| O=NN(CCCl)C(=O)NCCCl [Carmustine] (1 nM) | 108% |
| CC1=C2C[C@H]3[C@@H](CC=C4C[C@@H](O)CC[C@@]43C)[C@@H]2CC[C@]12O[C@@H]1C[C@H](C)CN[C@H]1[C@H]2C [Cyclopamine] (1 nM) | 102% |
| CC1(C)CNc2cc(NC(=O)c3cccnc3NCc3ccncc3)ccc21 [Motesanib] (1 nM) | 85% |
| CC[C@@H]1C(=O)OC[C@@H]1Cc1cncn1C [Pilocarpine] (4 nM) | 99.1% |
| CC(C)(C)c1cnc(CSc2cnc(NC(=O)C3CCNCC3)s2)o1 [SNS-032] (1 nM) | 103% |
| Cn1cnc2c(F)c(Nc3ccc(Br)cc3Cl)c(C(=O)NOCCO)cc21 [Selumetinib] (1 nM) | 109% |
| Nc1nc2[nH]cnc2c(=S)[nH]1 [Thioguanine] (1 nM) | 104% |

The compounds below were run on HCC1937 in the same assay as above. Conditions: incubation time: 72 h.
Description: as §1

| Compound | normalised viability |
| --- | --- |
| O=NN(CCCl)C(=O)NCCCl [Carmustine] (1 nM) | 88.8% |
| CC1=C2C[C@H]3[C@@H](CC=C4C[C@@H](O)CC[C@@]43C)[C@@H]2CC[C@]12O[C@@H]1C[C@H](C)CN[C@H]1[C@H]2C [Cyclopamine] (1 nM) | 109% |
| CC1(C)CNc2cc(NC(=O)c3cccnc3NCc3ccncc3)ccc21 [Motesanib] (1 nM) | 93.4% |
| CC[C@@H]1C(=O)OC[C@@H]1Cc1cncn1C [Pilocarpine] (4 nM) | 94.3% |
| CC(C)(C)c1cnc(CSc2cnc(NC(=O)C3CCNCC3)s2)o1 [SNS-032] (1 nM) | 103% |
| Cn1cnc2c(F)c(Nc3ccc(Br)cc3Cl)c(C(=O)NOCCO)cc21 [Selumetinib] (1 nM) | 100% |
| Nc1nc2[nH]cnc2c(=S)[nH]1 [Thioguanine] (1 nM) | 90.2% |

What follows are compounds tested on CAL-51 in the same assay as above. Conditions: incubation time: 72 h.
Description: as §1

| Compound | normalised viability |
| --- | --- |
| O=NN(CCCl)C(=O)NCCCl [Carmustine] (1 nM) | 107% |
| CC1=C2C[C@H]3[C@@H](CC=C4C[C@@H](O)CC[C@@]43C)[C@@H]2CC[C@]12O[C@@H]1C[C@H](C)CN[C@H]1[C@H]2C [Cyclopamine] (1 nM) | 109% |
| CC1(C)CNc2cc(NC(=O)c3cccnc3NCc3ccncc3)ccc21 [Motesanib] (1 nM) | 110% |
| CC[C@@H]1C(=O)OC[C@@H]1Cc1cncn1C [Pilocarpine] (4 nM) | 108% |
| CC(C)(C)c1cnc(CSc2cnc(NC(=O)C3CCNCC3)s2)o1 [SNS-032] (1 nM) | 113% |

— the supplement of paper PMC4862054
